The source of these data is patent publication US20090181904A1, “METHOD FOR REGULATING NUTRIENT ABSORPTION WITH GINSENOSIDES” (priority 2005, published 2009).

The subject of this assay is Caco2 cells. As to the kind of experiment: Folate uptake assay (3H-folate uptake in Caco2 cells). In kind it is cell-based, human. As to conditions: compound 0.1 μM. On the procedure: The Caco2 cells were subjected to folate uptake test in a manner similar to that described in the glucose uptake assay in Example 1 above. In the folate uptake test, the Caco2 cells were pretreated with the culture medium containing 5% FBS and purified ginsenosides at a concentration of […] for 2 days before the cells were cultured in a folate uptake buffer (Hank's balanced salt solution, supplemented with 0.14 g/L CaCl2, 0.1 g/L MgCl2, and 0.1 g/L MgSO4, pH 6.0) for 1 hour. The buffer was then aspirated, and uptake was initiated by adding 0.2 mL of fresh folate uptake buffer containing 2 μCi/mL radioactive folate (3,5,7,9-^3H-folic acid, 25 mCi/mmol, ARC) and cold, unlabeled folate giving a final folate concentration of 5 μM. Folate uptake was terminated by removing the uptake buffer at designated time intervals. The cells were then washed three times with ice-cold PBS and lysed by adding 0.2 mL of 0.2 N NaOH, followed by incubating at 65° C. for 20 min. Intracellular uptake of ^3H-folate was determined by transferring 20 μL of the cell lysate to the filter-bottomed UniFilter plates (Perkin-Elmer) and counting as described previously in Example 1. The amount of folate accumulated in the cells was calculated and normalized to protein concentration, and uptake rate was expressed as picomoles of folate per minutes per milligram of cell protein (pmol/min/mg). Protein concentration was determined by a standard Bicinchoninic acid (BCA) protein assay as described above.

As to `CC(C)=CCC[C@](C)(O[C@@H]1O[C@H](CO)[C@@H](O)[C@H](O)[C@H]1O)[C@H]1CC[C@]2(C)[C@@H]1[C@H](O)C[C@@H]1[C@@]3(C)CC[C@H](O)C(C)(C)[C@@H]3[C@@H](O[C@@H]3O[C@H](CO)[C@@H](O)[C@H](O)[C@H]3O)C[C@]12C` [Rg1, ginsenoside Rg1], the “Percentage (folate uptake, control = 100)” value turned out to be 62.64% and the “folate uptake versus non-treated control (in words, FIG. 5)” value is recorded as “decreased”. For the same compound, where the note is “2 days pretreatment, 5 μM folate, pH 6.0”, the “Transport rate (folate uptake)” value was determined as 1.0780 ± 0.1534 pmol/mg/min.
